# Marks after values point to notes of the source that are not given here.
# Columns and labels:
# [1] = test system: fibroblasts from patients affected by different lysosomal storage diseases; assay: Determination of lysosomal exocytosis (β-hexosaminidase activity in the culture medium); assay type: cell-based, human; details: vs untreated
# Description: (§1) Fibroblasts from thirteen patients affected by seven different lysosomal storage diseases (Fabry, Gaucher, Hurler, Niemann-Pick type A/B, Sanfilippo A, Sanfilippo B and Tay-Sachs) were cultured in DMEM (Dulbecco's modified Eagles medium) with 10% fetal bovine serum and in the presence of antibiotics (penicillin and streptomycin), at 37° C. with 5% CO2. All reagents were purchased from PAA Laboratories (Velizy-Villacoublay, France). The fibroblasts of the patients were selected on the basis of availability of fibroblasts and measurable residual activity. The use of human samples was approved by the Ethical Committee of Hospital Clinic, Barcelona
# Fibroblasts cultured for 72 h in 24 well-plates in the presence or absence of bicalutamide, (S)-bicalutamide, (S)-bicalutamide analogs or (R)-bicalutamide at different concentrations in triplicate (10 nmol/L, 100 nmol/L, 1 μmol/L, 10 μmol/L, 50 μmol/L and 100 μmol/L), were rinsed with physiological saline. The cells were lysed by using 3 freeze-thaw cycles. Then protein concentration was determined by using the Lowry method. Protein lysates (10 μg) were seeded in 96-well plates and the enzymatic activity of the enzyme involved in each disease was determined in triplicate by means of fluorimetric artificial substrates: 4-methylumbelliferyl-α-N-sulphoglucosaminide for Sanfilippo A, 4-methylumbelliferyl-2-acetamido-2 deoxy-α-D-glucopyranoside for Sanfilippo B, 4-methylumbelliferyl-α-L-iduronide for Hurler, 4-methylumbelliferyl-N-acetyl-β-D-glucosaminide for Tay-sachs, 4-methylumbelliferyl-β-D-glucopyranoside for Gaucher, 4-methylumbelliferyl-α-Galactopiranosid for Fabry disease, and 6-hexadecanoylamino-4-methylumbelliferyl-P-colline for Niemann-Pick type AB. The activity of the enzyme β-hexosaminidase was assayed by using 4-methylumbelliferyl-2 acetamido-2 deoxy-β-D-glucopyranoside as artificial substrate [Annunziata et al., Study of influence of sex and age on human serum lysosomal enzymes by using 4-methylumbelliferyl substrates. Clin. Chim. Acta.
# Lysosomal exocytosis was monitorized by measuring the enzymatic activity of the lysosomal enzyme β-hexosaminidase in the culture medium [Xu M, et al, δ-Tocopherol reduces lipid accumulation in Niemann-Pick type C1 and Wolman cholesterol storage disorders. […] The fibroblasts were previously treated with different concentrations of bicalutamide, (S)-bicalutamide or (R)-bicalutamide (10 nmol/L, 100 nmol/L, 1 μmol/L, 10 μmol/L, 50 μmol/L and 100 μmol/L) in triplicate in 24-well plates. At 0, 24, 48 and 72 hours, 30 μL of culture medium was aliquoted for the subsequent β-hexosaminidase activity assay.
# Fibroblasts from two patients affected by Sanfilippo B and Hurler diseases were treated with different concentrations of bicalutamide (racemic mixture at increasing concentrations of 0.01, 0.1, 1, 10 and 100 μM). And the increase in lysosomal exocytosis was determined by analyzing the enzymatic activity of the lysosomal enzyme β-hexosaminidase in the culture medium.
# Fibroblasts from thirteen patients affected by different lysosomal storage diseases (four Sanfilippo B disease patients with different genotypes, three Sanfilippo A disease patients with different genotypes, two Tay-Sachs disease patients with the same genotype, one Gaucher disease patient, one Niemann-pick type A/B disease patient, one Hurler disease patient, and one Fabry disease patient) were independently treated with different concentrations of (R)- and (S)-bicalutamide (50 and 100 μM) for 72 hours.
# [2] = test system: fibroblasts from patients affected by different lysosomal storage diseases; assay: Determination of glycosaminoglycans (GAGs), 1,9-dimethylmethylene blue (DMB) assay; assay type: cell-based, human; details: vs untreated
# Description: as §1
# Glycobiology. […] The fibroblasts were cultured in triplicate in 6-well plates and they were harvested 72 hours after treatment. DMB absorbance was measured in duplicate at 656 nm with a microplate reader (POLARstar Omega, BMG LABTECH, Offenburg, Germany).
# Fibroblasts from three patients affected by Sanfilippo B disease and one patient affected by Hurler disease were treated with increasing concentrations of bicalutamide (racemic mixture at increasing concentrations of 0.01, 0.1, 1, 10 and 100 μM). Glycosaminoglycans (GAGs) levels were quantified with the 1,9-dimethylmethylene blue (DMB) assay.
# Fibroblasts from seven patients affected by different diseases derived from lysosomal storage (three Sanfilippo B disease patients with different genotypes, one Sanfilippo A disease patient, one Tay-Sachs disease patient, one Niemann-Pick type A/B disease patient and one Hurler disease patient) were independently treated with different concentrations of (R)- and (S)-bicalutamide (50 and 100 μM).
structure (smiles),measurement,setting,value
CC(O)(CS(=O)(=O)c1ccc(F)cc1)C(=O)Nc1ccc(C#N)c(C(F)(F)F)c1 (racemic) [Racemic Bicalutamide],Increase in lysosomal Exocytosis (%),"[1]; Table 1 patient 1, Sanfilippo B fibroblasts, 10 nM",31* %
same,Increase in lysosomal Exocytosis (%),"[1]; Table 1 patient 1, Sanfilippo B fibroblasts, 100 nM",23* %
same,Increase in lysosomal Exocytosis (%),"[1]; Table 1 patient 1, Sanfilippo B fibroblasts, 1 μM",49%
same,Increase in lysosomal Exocytosis (%),"[1]; Table 1 patient 1, Sanfilippo B fibroblasts, 10 μM",45%
same,Increase in lysosomal Exocytosis (%),"[1]; Table 1 patient 1, Sanfilippo B fibroblasts, 100 μM",100* %
same,Increase in lysosomal Exocytosis (%),"[1]; Table 1 patient 2, Hurler fibroblasts, 10 nM",14%
same,Increase in lysosomal Exocytosis (%),"[1]; Table 1 patient 2, Hurler fibroblasts, 100 nM",13%
same,Increase in lysosomal Exocytosis (%),"[1]; Table 1 patient 2, Hurler fibroblasts, 1 μM",9%
same,Increase in lysosomal Exocytosis (%),"[1]; Table 1 patient 2, Hurler fibroblasts, 10 μM",3%
same,Increase in lysosomal Exocytosis (%),"[1]; Table 1 patient 2, Hurler fibroblasts, 100 μM",8%
same,Increase in lysosomal Exocytosis (%),"[1]; Table 1 patient 3, Control fibroblasts, 10 nM",0%
same,Increase in lysosomal Exocytosis (%),"[1]; Table 1 patient 3, Control fibroblasts, 100 nM",27%
same,Increase in lysosomal Exocytosis (%),"[1]; Table 1 patient 3, Control fibroblasts, 1 μM",13%
same,Increase in lysosomal Exocytosis (%),"[1]; Table 1 patient 3, Control fibroblasts, 10 μM",12* %
same,Increase in lysosomal Exocytosis (%),"[1]; Table 1 patient 3, Control fibroblasts, 100 μM",13* %
same,Decrease of GAGs (%),"[2]; Table 2 patient 1, Sanfilippo B fibroblasts, 10 nM",17%
same,Decrease of GAGs (%),"[2]; Table 2 patient 1, Sanfilippo B fibroblasts, 100 nM",25%
same,Decrease of GAGs (%),"[2]; Table 2 patient 1, Sanfilippo B fibroblasts, 1 μM",17%
same,Decrease of GAGs (%),"[2]; Table 2 patient 1, Sanfilippo B fibroblasts, 10 μM",22* %
same,Decrease of GAGs (%),"[2]; Table 2 patient 1, Sanfilippo B fibroblasts, 100 μM",54* %
same,Decrease of GAGs (%),"[2]; Table 2 patient 2, Sanfilippo B fibroblasts, 10 nM",0%
same,Decrease of GAGs (%),"[2]; Table 2 patient 2, Sanfilippo B fibroblasts, 100 nM",16%
same,Decrease of GAGs (%),"[2]; Table 2 patient 2, Sanfilippo B fibroblasts, 1 μM",0%
same,Decrease of GAGs (%),"[2]; Table 2 patient 2, Sanfilippo B fibroblasts, 10 μM",0%
same,Decrease of GAGs (%),"[2]; Table 2 patient 2, Sanfilippo B fibroblasts, 100 μM",20%
same,Decrease of GAGs (%),"[2]; Table 2 patient 3, Sanfilippo B fibroblasts, 10 nM",53%
same,Decrease of GAGs (%),"[2]; Table 2 patient 3, Sanfilippo B fibroblasts, 100 nM",13%
same,Decrease of GAGs (%),"[2]; Table 2 patient 3, Sanfilippo B fibroblasts, 1 μM",33%
same,Decrease of GAGs (%),"[2]; Table 2 patient 3, Sanfilippo B fibroblasts, 10 μM",33%
same,Decrease of GAGs (%),"[2]; Table 2 patient 3, Sanfilippo B fibroblasts, 100 μM",0%
same,Decrease of GAGs (%),"[2]; Table 2 patient 4, Hurler fibroblasts, 10 nM",0%
same,Decrease of GAGs (%),"[2]; Table 2 patient 4, Hurler fibroblasts, 100 nM",0%
same,Decrease of GAGs (%),"[2]; Table 2 patient 4, Hurler fibroblasts, 1 μM",0%
same,Decrease of GAGs (%),"[2]; Table 2 patient 4, Hurler fibroblasts, 10 μM",0%
same,Decrease of GAGs (%),"[2]; Table 2 patient 4, Hurler fibroblasts, 100 μM",0%
same,Decrease of GAGs (%),"[2]; Table 2 patient 5, Control fibroblasts, 10 nM",0%
same,Decrease of GAGs (%),"[2]; Table 2 patient 5, Control fibroblasts, 100 nM",0%
same,Decrease of GAGs (%),"[2]; Table 2 patient 5, Control fibroblasts, 1 μM",0%
same,Decrease of GAGs (%),"[2]; Table 2 patient 5, Control fibroblasts, 10 μM",0%
same,Decrease of GAGs (%),"[2]; Table 2 patient 5, Control fibroblasts, 100 μM",0%
